Experimental data: ChEMBL document CHEMBL1255421, “In vitro fungicidal activities of echinocandins against Candida metapsilosis, C. orthopsilosis, and C. parapsilosis evaluated by time-kill studies” (2010)
In brackets after ≈: the same amount, converted by molar mass. Activity calls are given as the source filed them. No cut-off for these calls is given here. Numbered stars: 1 amine (or outer) side, 2 acyl side, 3 side chain; on linkers, the order of the positions; unused ones are H or OH. Bridge positions count the residues as written; N and C are the ends. Square brackets hold non-standard residues; d marks the D form. Peptide text beside a SMILES is read from it. * marks the point of attachment. pTerphenylCO(4''-OnC5H11) = CCCCCOc1ccc(-c2ccc(-c3ccc(C(=O)*)cc3)cc2)cc1; Orn(4R-OH,5R-OH) = O=C([C@H](C[C@@H](O)[C@@H](O)N[*:3])N[*:1])[*:2]; hTyr(3S-OH,4S-OH) = N[C@H](C(=O)O)[C@H](O)[C@@H](O)c1ccc(O)cc1; Pro(3S-OH,4S-Me) = C[C@H]1CN[C@H](C(=O)O)[C@H]1O; Hyp = O=C(O)[C@@H]1C[C@@H](O)CN1

What was measured:
Candida parapsilosis [1] = assay: Antifungal activity against Candida parapsilosis clinical isolate bloodstream form assessed as time required for 99% reduction in fungal growth at 32 mg/L by time-kill assay; type: functional
Candida metapsilosis [2] = assay: Antifungal activity against Candida metapsilosis clinical isolate bloodstream form assessed as time required for 50% reduction in fungal growth at 16 mg/L by time-kill assay; type: functional
Candida parapsilosis [3] = assay: Antifungal activity against Candida parapsilosis clinical isolate bloodstream form assessed as fungal count at 4 mg/L measured at 6 hrs by time-kill assay; type: functional
Candida parapsilosis [4] = assay: Antifungal activity against Candida parapsilosis clinical isolate bloodstream form assessed as time required for 99.9% reduction in fungal growth at 1 mg/L by time-kill assay; type: functional
Candida metapsilosis [5] = assay: Antifungal activity against Candida metapsilosis clinical isolate bloodstream form assessed as time required for 99% reduction in fungal growth at 1 mg/L by time-kill assay; type: functional
Candida metapsilosis [6] = assay: Antifungal activity against Candida metapsilosis clinical isolate bloodstream form assessed as time required for 99.9% reduction in fungal growth at 4 mg/L by time-kill assay; type: functional
Candida orthopsilosis [7] = assay: Antifungal activity against Candida orthopsilosis clinical isolate bloodstream form assessed as time required for 99.9% reduction in fungal growth at 4 mg/L by time-kill assay; type: functional
Candida metapsilosis [8] = assay: Antifungal activity against Candida metapsilosis clinical isolate bloodstream form assessed as time required for 50% reduction in fungal growth at 4 mg/L by time-kill assay; type: functional
Candida metapsilosis [9] = assay: Antifungal activity against Candida metapsilosis clinical isolate bloodstream form assessed as time required for 90% reduction in fungal growth at 0.25 mg/L by time-kill assay; type: functional
Candida parapsilosis [10] = assay: Antifungal activity against Candida parapsilosis clinical isolate bloodstream form assessed as induction of miniparadoxical effect at 32 mg/L after 48 hrs by time-kill assay; type: functional, organism-based
Candida parapsilosis [11] = assay: Antifungal activity against Candida parapsilosis clinical isolate bloodstream form assessed as time required for 90% reduction in fungal growth at 16 mg/L by time-kill assay; type: functional
Candida parapsilosis [12] = assay: Antifungal activity against Candida parapsilosis clinical isolate bloodstream form assessed as time required for 90% reduction in fungal growth at 1 mg/L by time-kill assay; type: functional
Candida parapsilosis [13] = assay: Antifungal activity against Candida parapsilosis clinical isolate bloodstream form assessed as induction of maximal fungal death at 8 mg/L after 48 hrs by time-kill assay; type: functional, organism-based
Candida parapsilosis [14] = assay: Antifungal activity against Candida parapsilosis clinical isolate bloodstream form assessed as time required for 99.9% reduction in fungal growth at 0.25 mg/L by time-kill assay; type: functional
Candida metapsilosis [15] = assay: Antifungal activity against Candida metapsilosis clinical isolate bloodstream form assessed as induction of miniparadoxical effect at 32 mg/L after 48 hrs by time-kill assay; type: functional, organism-based
Candida metapsilosis [16] = assay: Fungicidal activity against Candida metapsilosis isolate ATC193 bloodstream form by CLSI method; type: functional; details: Lodderomyces metapsilosis, isolate ATC-193
Candida metapsilosis [17] = assay: Antifungal activity against Candida metapsilosis clinical isolate bloodstream form assessed as time required for 99.9% reduction in fungal growth at 0.25 mg/L by time-kill assay; type: functional
Candida metapsilosis [18] = assay: Antifungal activity against Candida metapsilosis clinical isolate bloodstream form assessed as time required for 99.9% reduction in fungal growth at 32 mg/L by time-kill assay; type: functional
Candida orthopsilosis [19] = assay: Antifungal activity against Candida orthopsilosis clinical isolate bloodstream form assessed as time required for 99% reduction in fungal growth at 32 mg/L by time-kill assay; type: functional
Candida metapsilosis [20] = assay: Antifungal activity against Candida metapsilosis clinical isolate bloodstream form assessed as time required for 99% reduction in fungal growth at 0.25 mg/L by time-kill assay; type: functional
Candida parapsilosis [21] = assay: Antifungal activity against Candida parapsilosis clinical isolate bloodstream form assessed as time required for 50% reduction in fungal growth at 16 mg/L by time-kill assay; type: functional
Candida orthopsilosis [22] = assay: Antifungal activity against Candida orthopsilosis clinical isolate bloodstream form assessed as time required for 99% reduction in fungal growth at 0.25 mg/L by time-kill assay; type: functional
Candida parapsilosis [23] = assay: Antifungal activity against Candida parapsilosis clinical isolate bloodstream form assessed as time required for 99% reduction in fungal growth at 0.25 mg/L by time-kill assay; type: functional
Candida parapsilosis [24] = assay: Antifungal activity against Candida parapsilosis clinical isolate bloodstream form assessed as inhibition of fungal regrowth at 0.03 to 32 mg/L after 6 hrs by time-kill assay; type: functional, organism-based
Candida parapsilosis [25] = assay: Antifungal activity against Candida parapsilosis clinical isolate bloodstream form assessed as time required for 99.9% reduction in fungal growth at 32 mg/L by time-kill assay; type: functional
Candida orthopsilosis [26] = assay: Antifungal activity against Candida orthopsilosis clinical isolate bloodstream form assessed as induction of miniparadoxical effect at 32 mg/L after 48 hrs by time-kill assay; type: functional, organism-based
Candida orthopsilosis [27] = assay: Antifungal activity against Candida orthopsilosis clinical isolate bloodstream form assessed as time required for 99% reduction in fungal growth at 4 mg/L by time-kill assay; type: functional
Candida orthopsilosis [28] = assay: Antifungal activity against Candida orthopsilosis clinical isolate bloodstream form assessed as time required for 50% reduction in fungal growth at 32 mg/L by time-kill assay; type: functional
Candida metapsilosis [29] = assay: Antifungal activity against Candida metapsilosis clinical isolate bloodstream form assessed as mild induction of fungal death at 0.03 to 32 mg/L after 6 hrs by time-kill assay; type: functional, organism-based
Candida parapsilosis [30] = assay: Antifungal activity against Candida parapsilosis clinical isolate bloodstream form assessed as time required for 50% reduction in fungal growth at 32 mg/L by time-kill assay; type: functional
Candida parapsilosis [31] = assay: Antifungal activity against Candida parapsilosis clinical isolate bloodstream form assessed as time required for 50% reduction in fungal growth at 1 mg/L by time-kill assay; type: functional
Candida orthopsilosis [32] = assay: Antifungal activity against Candida orthopsilosis clinical isolate bloodstream form assessed as induction of maximal fungal death at 1 mg/L after 48 hrs by time-kill assay; type: functional, organism-based
Candida metapsilosis [33] = assay: Fungicidal activity against Candida metapsilosis isolate CP-133 bloodstream form by CLSI method; type: functional; details: Lodderomyces metapsilosis
Candida orthopsilosis [34] = assay: Antifungal activity against Candida orthopsilosis clinical isolate bloodstream form assessed as time required for 90% reduction in fungal growth at 0.25 mg/L by time-kill assay; type: functional
Candida metapsilosis [35] = assay: Antifungal activity against Candida metapsilosis clinical isolate bloodstream form assessed as time required for 99.9% reduction in fungal growth at 16 mg/L by time-kill assay; type: functional
Candida metapsilosis [36] = assay: Antifungal activity against Candida metapsilosis clinical isolate bloodstream form assessed as time required for 90% reduction in fungal growth at 32 mg/L by time-kill assay; type: functional
Candida metapsilosis [37] = assay: Antifungal activity against Candida metapsilosis clinical isolate bloodstream form assessed as time required for 99% reduction in fungal growth at 16 mg/L by time-kill assay; type: functional
Candida orthopsilosis [38] = assay: Fungicidal activity against Candida orthopsilosis isolate ATC194 bloodstream form by CLSI method; type: functional; details: Lodderomyces orthopsilosis, isolate ATC-194
Candida metapsilosis [39] = assay: Antifungal activity against Candida metapsilosis clinical isolate bloodstream form assessed as time required for 99% reduction in fungal growth at 32 mg/L by time-kill assay; type: functional

**Q.** What does the source list for `CCCCCOc1ccc(-c2ccc(-c3ccc(C(=O)N[C@H]4C[C@@H](O)[C@@H](O)NC(=O)[C@@H]5[C@@H](O)[C@@H](C)CN5C(=O)[C@H]([C@@H](C)O)NC(=O)[C@H]([C@H](O)[C@@H](O)c5ccc(O)cc5)NC(=O)[C@@H]5C[C@@H](O)CN5C(=O)[C@H]([C@@H](C)O)NC4=O)cc3)cc2)cc1` [ANIDULAFUNGIN] ({pTerphenylCO(4''-OnC5H11)}-[Orn(4R-OH,5R-OH)]T[Hyp][hTyr(3S-OH,4S-OH)]T[Pro(3S-OH,4S-Me)]; lactam 1-C)?
**A.** Time (Candida parapsilosis [1]): 27.89 h; Time (Candida metapsilosis [2]): 1.51 h; log10cfu (Candida parapsilosis [3]): 1.48 /ml; Time (Candida parapsilosis [4]): inactive; Time (Candida metapsilosis [5]): 10.44 h; Time (Candida metapsilosis [6]): 23.83 h; Time (Candida orthopsilosis [7]): 27.25 h; Time (Candida metapsilosis [8]): 2.39 h; Time (Candida metapsilosis [9]): 25.71 h; Activity (Candida parapsilosis [10]): Active; Time (Candida parapsilosis [11]): 26.04 h; Time (Candida parapsilosis [12]): inactive; Activity (Candida parapsilosis [13]): Active; Time (Candida parapsilosis [14]): inactive; Activity (Candida metapsilosis [15]): inactive; MIC (Candida metapsilosis [16]): 0.03 µg/mL (≈ 0.0263 µM); Time (Candida metapsilosis [17]): 77.12 h; Time (Candida metapsilosis [18]): 14.06 h; Time (Candida orthopsilosis [19]): 9.81 h; Time (Candida metapsilosis [20]): 51.41 h; Time (Candida parapsilosis [21]): 7.84 h; Time (Candida orthopsilosis [22]): >48 h; Time (Candida parapsilosis [23]): inactive; inhibition (Candida parapsilosis [24]): inactive; Time (Candida parapsilosis [25]): 41.84 h; Activity (Candida orthopsilosis [26]): Active; Time (Candida orthopsilosis [27]): 18.17 h; Time (Candida orthopsilosis [28]): 1.48 h; Activity (Candida metapsilosis [29]): Active; Time (Candida parapsilosis [30]): 4.2 h; Time (Candida parapsilosis [31]): inactive; Activity (Candida orthopsilosis [32]): Active; MIC (Candida metapsilosis [33]): 0.06 µg/mL (≈ 0.0526 µM); Time (Candida orthopsilosis [34]): >48 h; Time (Candida metapsilosis [35]): 15.03 h; Time (Candida metapsilosis [36]): 4.69 h; Time (Candida metapsilosis [37]): 10.02 h; MIC (Candida orthopsilosis [38]): 0.12 µg/mL (≈ 0.105 µM); Time (Candida metapsilosis [39]): 9.37 h
